Experiment: Concentration required to achieve 50% protection of MT-4 cell from the HIV-1 induced cytopathogenicity was determined by the MTT method

Row | SMILES | EC50 [µM]
1 | CC(=O)Oc1ccccc1C(=O)N(C(=S)OCCOc1ccccc1)c1ccccc1 [Acetic acid 2-(2-phenoxy-ethoxythiocarbonyl)-phenyl-aminocarbonyl)-phenyl ester] | 9.5
2 | O=C(c1ccco1)N(C(=S)OCCc1ccccc1)c1ccccc1 [(Furan-2-carbonyl)-phenyl-thiocarbamic acid O-phenethyl ester] | 4.3
3 | CC(COc1ccccc1)OC(=S)N(C(=O)Oc1ccccc1)c1ccccc1 (stereo not drawn) [O-(1-methyl-2-phenoxyethyl) O-phenyl phenylimidothiodicarbonate] | > 200
4 | CC(COc1ccccc1)OC(=S)N(C(=O)COc1ccccc1)c1ccccc1 (stereo not drawn) [(2-Phenoxy-acetyl)-phenyl-thiocarbamic acid O-(1-methyl-2-phenoxy-ethyl) ester] | 1.4
5 | O=C(COc1ccccc1)N(C(=S)OCCOc1ccccc1)c1ccccc1 [(2-Phenoxy-acetyl)-phenyl-thiocarbamic acid O-(2-phenoxy-ethyl) ester] | 6
6 | COc1cccc(N(C(=O)c2cccs2)C(=S)OCCN2C(=O)c3ccccc3C2=O)c1 [(3-Methoxy-phenyl)-(thiophene-2-carbonyl)-thiocarbamic acid O-[2-(1,3-dioxo-1,3-dihydro-isoindol-2-yl)-ethyl] ester] | 3.5

The next lines start with the values.

Row | EC50 [µM] | SMILES
7 | 11 | COc1ccccc1N(C(=O)c1cccs1)C(=S)OCCN1C(=O)c2ccccc2C1=O [(2-Methoxy-phenyl)-(thiophene-2-carbonyl)-thiocarbamic acid O-[2-(1,3-dioxo-1,3-dihydro-isoindol-2-yl)-ethyl] ester]
8 | > 38.3 | O=C(c1ccccc1)N(C(=S)OCc1ccco1)c1ccccc1 [Benzoyl-phenyl-thiocarbamic acid O-furan-2-ylmethyl ester]
9 | 1.3 | CC(COc1ccccc1)OC(=S)N(C(=O)c1ccco1)c1ccccc1 (stereo not drawn) [(Furan-2-carbonyl)-phenyl-thiocarbamic acid O-(1-methyl-2-phenoxy-ethyl) ester]
10 | 47 | CCCCOC(=O)N(C(=S)OC(C)COc1ccccc1)c1ccccc1 (stereo not drawn) [O-butyl O-(1-methyl-2-phenoxyethyl) phenylimidothiodicarbonate]
11 | 200 | O=C(c1ccccc1)N(C(=S)OCCOc1ccccc1)C1CCCCC1 [Benzoyl-cyclohexyl-thiocarbamic acid O-(2-phenoxy-ethyl) ester]
12 | 0.03 | CCc1ccc(N(C(=O)c2ccco2)C(=S)OCCN2C(=O)c3ccccc3C2=O)cc1 [(4-Ethyl-phenyl)-(furan-2-carbonyl)-thiocarbamic acid O-[2-(1,3-dioxo-1,3-dihydro-isoindol-2-yl)-ethyl] ester]
13 | 11 | CC(COc1ccccc1)OC(=S)N(C(=O)c1cccs1)c1cccc(Cl)c1 (stereo not drawn) [(3-Chloro-phenyl)-(thiophene-2-carbonyl)-thiocarbamic acid O-(1-methyl-2-phenoxy-ethyl) ester]
